{
  "source": "paper PMC9628931",
  "about": "(Chemical Science, 2022)",
  "key": {"[1]": {"biological_target": "T1, AsAKS2 (BAHD5, 37058_t) (Alstonia scholaris, UniProt A0A9E7LUL3)", "T1 sequence (A0A9E7LUL3 1-450)": "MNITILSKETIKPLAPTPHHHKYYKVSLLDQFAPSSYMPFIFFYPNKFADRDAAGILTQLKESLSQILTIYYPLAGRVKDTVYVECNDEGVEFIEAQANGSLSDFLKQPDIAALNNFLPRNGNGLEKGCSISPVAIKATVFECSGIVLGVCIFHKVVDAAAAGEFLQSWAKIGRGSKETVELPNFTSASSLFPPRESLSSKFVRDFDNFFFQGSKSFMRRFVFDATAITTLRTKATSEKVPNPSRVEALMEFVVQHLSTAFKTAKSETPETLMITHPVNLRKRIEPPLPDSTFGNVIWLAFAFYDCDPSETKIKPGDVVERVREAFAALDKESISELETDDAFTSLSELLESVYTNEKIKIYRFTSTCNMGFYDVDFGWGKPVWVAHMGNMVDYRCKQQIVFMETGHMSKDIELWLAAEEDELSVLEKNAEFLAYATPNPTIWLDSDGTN", "assay": "LCMS detection of akuammiline", "type": "biochemical", "settings": "co-substrate rhazimol"}, "[2]": {"biological_target": "T2, AsAKS1 (BAHD3, 43565_t) (Alstonia scholaris, UniProt A0A9E7S5E3)", "T2 sequence (A0A9E7S5E3 1-419)": "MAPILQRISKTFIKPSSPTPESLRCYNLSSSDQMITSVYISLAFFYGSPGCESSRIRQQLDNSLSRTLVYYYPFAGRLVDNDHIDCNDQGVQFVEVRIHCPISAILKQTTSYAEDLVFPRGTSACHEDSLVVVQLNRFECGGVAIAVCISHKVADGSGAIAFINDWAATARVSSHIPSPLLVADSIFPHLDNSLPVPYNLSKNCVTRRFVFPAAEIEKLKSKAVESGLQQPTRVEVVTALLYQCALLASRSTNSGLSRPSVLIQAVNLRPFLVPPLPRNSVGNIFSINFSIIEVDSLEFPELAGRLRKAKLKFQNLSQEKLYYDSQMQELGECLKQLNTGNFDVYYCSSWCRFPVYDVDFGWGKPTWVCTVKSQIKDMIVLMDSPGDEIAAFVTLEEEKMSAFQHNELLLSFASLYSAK", "assay": "LCMS detection of akuammiline", "type": "biochemical", "settings": "co-substrate rhazimol"}},
  "data": [
    {"molecule": "CC(=O)SCCNC(=O)CCNC(=O)[C@H](O)C(C)(C)COP(=O)(O)OP(=O)(O)OC[C@H]1O[C@@H](n2cnc3c(N)ncnc32)[C@H](O)[C@@H]1OP(=O)(O)O", "note": "[acetyl-CoA]", "values": [
      {"measurement": "LCMS detection of akuammiline", "setting": "[1]", "result": "The BAHD candidates were assayed by incubation with rhazimol and acetyl-CoA"},
      {"measurement": "LCMS detection of akuammiline", "setting": "[2]", "result": "The BAHD candidates were assayed by incubation with rhazimol and acetyl-CoA"}
    ]}
  ]
}
